According to US7495027B2, “3-aryl-4-hydroxyfuranone compounds and the human and animal health use thereof” (Wyeth, priority 2003, dated 2009):
≈ marks a conversion by molar mass, not a printed value. Read-outs that look alike come from different tables or passages of the source.

Experiments:
[1] = biological target: E. coli Enopyruvyl-UPD-N-acetylglucosamine reductase, Mur B (Escherichia coli, UniProt P08373); experiment: biochemical; settings: (E) E. coli enzyme; for IC50: read-out: MurB IC50 (converted)
Chain of E. coli Enopyruvyl-UPD-N-acetylglucosamine reductase, Mur B (P08373 whole entry): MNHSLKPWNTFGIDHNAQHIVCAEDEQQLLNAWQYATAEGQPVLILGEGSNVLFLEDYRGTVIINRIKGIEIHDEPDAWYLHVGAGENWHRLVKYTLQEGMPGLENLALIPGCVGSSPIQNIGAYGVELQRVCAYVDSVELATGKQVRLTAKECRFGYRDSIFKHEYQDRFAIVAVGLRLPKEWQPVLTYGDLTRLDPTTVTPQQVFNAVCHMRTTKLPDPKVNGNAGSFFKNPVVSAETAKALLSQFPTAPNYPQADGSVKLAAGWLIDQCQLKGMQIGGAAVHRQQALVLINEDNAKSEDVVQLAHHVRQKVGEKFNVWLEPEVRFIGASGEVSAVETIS

[2] = biological target: T1, S. aureus Enopyruvyl-UPD-N-acetylglucosamine reductase, Mur B (Staphylococcus aureus, UniProt P61431); experiment: biochemical; settings: (S) S. aureus enzyme; for IC50: read-out: MurB IC50 (converted)
T1 sequence (P61431 1-307): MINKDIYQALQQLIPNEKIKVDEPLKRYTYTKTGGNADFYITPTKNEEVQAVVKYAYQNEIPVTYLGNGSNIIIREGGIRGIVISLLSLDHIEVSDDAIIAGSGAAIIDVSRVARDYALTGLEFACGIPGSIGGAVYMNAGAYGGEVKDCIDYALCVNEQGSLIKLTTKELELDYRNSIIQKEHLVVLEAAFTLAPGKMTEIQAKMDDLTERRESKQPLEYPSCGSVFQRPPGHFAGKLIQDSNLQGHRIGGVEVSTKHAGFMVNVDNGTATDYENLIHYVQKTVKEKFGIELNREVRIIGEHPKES

[3] = biological target: T2, S. aureus Uridine-diphosphate-N-acetylmuramoyl-L-alanine: D-glutamate liease, MurD (Staphylococcus aureus, UniProt Q2FZ92); experiment: biochemical; settings: (S) S. aureus enzyme
T2 sequence (Q2FZ92 1-449): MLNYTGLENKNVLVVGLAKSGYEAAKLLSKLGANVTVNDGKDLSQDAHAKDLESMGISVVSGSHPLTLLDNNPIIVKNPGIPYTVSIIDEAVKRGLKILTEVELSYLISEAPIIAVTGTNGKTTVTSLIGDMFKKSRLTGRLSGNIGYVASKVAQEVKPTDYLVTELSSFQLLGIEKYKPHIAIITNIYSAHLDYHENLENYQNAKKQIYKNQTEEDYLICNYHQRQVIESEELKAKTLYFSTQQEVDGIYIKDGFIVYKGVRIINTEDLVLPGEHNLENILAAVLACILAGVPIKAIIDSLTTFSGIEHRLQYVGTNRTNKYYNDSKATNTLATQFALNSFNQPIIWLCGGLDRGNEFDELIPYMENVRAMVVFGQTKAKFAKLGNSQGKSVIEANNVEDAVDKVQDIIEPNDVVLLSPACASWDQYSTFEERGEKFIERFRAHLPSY
Summary of the method: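 Test solutions, 10 mg/mL stocks in DMSO, were brought to 100 μg/mL with 50 mM Tris/HCl (pH 8.5). Their inhibition of MurD, the enzyme of the fourth cell wall biosynthesis step, was measured.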

Streptococci = experiment: Minimum inhibitory concentration, microdilution broth method, streptococci; assay type: cell-based; settings: Mueller-Hinton broth with 5% horse blood, 18-22 hours at 35° C.; for MIC: S. pneumo GC 1894
Summary of the method: (§1)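 Following NCCLS standard M7-A5, MICs were determined by microdilution in Mueller-Hinton broth, with 5% horse blood added for streptococci.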

enterococci = experiment: Minimum inhibitory concentration, microdilution broth method, enterococci; assay type: cell-based; settings: Mueller-Hinton broth, 18-22 hours at 35° C.; for MIC: Enterococcus faecalis
Summary of the method: as §1

[4] = E. faecalis GC 2242, read-out: MIC E. faecalis GC 2242
[5] = E. faecalis GC 4555, read-out: MIC E. faecalis GC 4555

Compound	IC50 [1]	IC50 [2]	IC50 [3]	MIC (Streptococci)	MIC (enterococci; [4])	MIC (enterococci; [5])	MurB IC50 [1]	MurB IC50 [2]	MurD IC50 [3]	MIC S. pneumo GC 1894 (Streptococci)	MIC E. faecalis GC 2242 (enterococci; E. faecalis GC 2242)	MIC E. faecalis GC 4555 (enterococci; E. faecalis GC 4555)
COc1cc(/C=C2\OC(=O)C(c3cc(Cl)cc(Cl)c3)=C2O)ccc1-c1ccccc1Cl [Example 21]	10.6 µM	6.33 µM	16.9 µM	0.5 µg/mL (≈ 1.06 µM)	2 µg/mL (≈ 4.22 µM)	4 µg/mL (≈ 8.44 µM)						
COc1cc(/C=C2\OC(=O)C(c3cccc(Cl)c3)=C2O)ccc1-c1ccccc1C [Example 22]	14.3 µM	14.3 µM	40.6 µM	1 µg/mL (≈ 2.39 µM)	8 µg/mL (≈ 19.1 µM)	16 µg/mL (≈ 38.2 µM)						
COc1ccccc1-c1ccc(/C=C2\OC(=O)C(c3cccc(Cl)c3)=C2O)cc1C [Example 23]	9.55 µM	11.9 µM	23.9 µM	1 µg/mL (≈ 2.39 µM)	8 µg/mL (≈ 19.1 µM)	8 µg/mL (≈ 19.1 µM)						
COc1ccccc1-c1ccc(/C=C2\OC(=O)C(c3cc(Cl)cc(Cl)c3)=C2O)cc1C [Example 24]	8.82 µM	4.41 µM	24.3 µM	0.5 µg/mL (≈ 1.1 µM)	4 µg/mL (≈ 8.82 µM)	4 µg/mL (≈ 8.82 µM)						
COc1cc(/C=C2\OC(=O)C(c3cc(Cl)cc(Cl)c3)=C2O)ccc1-c1ccccc1C [Example 25]	4.41 µM	4.41 µM	30.9 µM	0.25 µg/mL (≈ 0.551 µM)	2 µg/mL (≈ 4.41 µM)	4 µg/mL (≈ 8.82 µM)						
Cc1cc(/C=C2\OC(=O)C(c3cccc(Cl)c3)=C2O)ccc1-c1ccccc1C(F)(F)F [Example 26]	6.57 µM	4.38 µM	19.7 µM	< 0.125 µg/mL	2 µg/mL (≈ 4.38 µM)	4 µg/mL (≈ 8.76 µM)						
Cc1cc(/C=C2\OC(=O)C(c3cc(Cl)cc(Cl)c3)=C2O)ccc1-c1ccccc1C(F)(F)F [Example 27]	6.11 µM	4.07 µM	48.9 µM	0.5 µg/mL (≈ 1.02 µM)	1 µg/mL (≈ 2.04 µM)	2 µg/mL (≈ 4.07 µM)						
Cc1ccccc1-c1ccc(/C=C2\OC(=O)C(c3cccc(Cl)c3)=C2O)cc1C [Example 28]	7.45 µM	7.45 µM	> 62.1 µM	< 0.125 µg/mL	2 µg/mL (≈ 4.96 µM)	4 µg/mL (≈ 9.93 µM)						
Cc1ccccc1-c1ccc(/C=C2\OC(=O)C(c3cc(Cl)cc(Cl)c3)=C2O)cc1C [Example 29]	4.57 µM	4.57 µM	38.9 µM	< 0.125 µg/mL	0.5 µg/mL (≈ 1.14 µM)	2 µg/mL (≈ 4.57 µM)						
Cc1cc(/C=C2\OC(=O)C(c3cccc(Cl)c3)=C2O)ccc1-c1ccccc1Cl [Example 30]	4.72 µM	4.72 µM	> 59.1 µM	0.25 µg/mL (≈ 0.591 µM)	4 µg/mL (≈ 9.45 µM)	4 µg/mL (≈ 9.45 µM)						
Cc1cc(C=C2OC(=O)C(c3cc(Cl)cc(Cl)c3)=C2O)ccc1-c1ccccc1Cl [Example 31]							2 (E); 2 (S) μg/mL	2 (E); 2 (S) μg/mL	10 (S) μg/mL	0.25 µg/mL (≈ 0.546 µM)	1 µg/mL (≈ 2.18 µM)	2 µg/mL (≈ 4.37 µM)
COc1cc(/C=C2\OC(=O)C(c3cccc(Cl)c3)=C2O)ccc1-c1ccccc1C(F)(F)F [Example 32]	12.7 µM	6.34 µM	19 µM	0.5 µg/mL (≈ 1.06 µM)	4 µg/mL (≈ 8.46 µM)	8 µg/mL (≈ 16.9 µM)						
COc1cc(/C=C2\OC(=O)C(c3cc(Cl)cc(Cl)c3)=C2O)ccc1-c1ccccc1C(F)(F)F [Example 33]	3.94 µM	3.94 µM	> 49.3 µM	0.5 µg/mL (≈ 0.986 µM)	1 µg/mL (≈ 1.97 µM)	2 µg/mL (≈ 3.94 µM)						
Cc1cc(/C=C2\OC(=O)C(c3cc(Cl)cc(Cl)c3)=C2O)ccc1-c1ccccc1OS(C)(=O)=O [Example 39]							8 µg/mL	4 µg/mL	15 (S) μg/mL	1 µg/mL (≈ 1.93 µM)	4 µg/mL (≈ 7.73 µM)	8 µg/mL (≈ 15.5 µM)
O=C1O/C(=C\c2ccc(Cl)cc2)C(O)=C1c1ccc2ccccc2c1 [Example 43]	17.2 µM	14.3 µM	> 71.7 µM	1 µg/mL (≈ 2.87 µM)	4 µg/mL (≈ 11.5 µM)	16 µg/mL (≈ 45.9 µM)						
O=C1O/C(=C\c2cccc3ccccc23)C(O)=C1c1cccc2ccccc12 [Example 47]	63.1 µM	27.4 µM	> 68.6 µM	16 µg/mL (≈ 43.9 µM)	32 µg/mL (≈ 87.8 µM)	64 µg/mL (≈ 176 µM)						
O=C1O/C(=C\c2cccc3ccccc23)C(O)=C1c1cc(Cl)cc(Cl)c1 [Example 70]	18.3 µM	13 µM	23.5 µM	0.5 µg/mL (≈ 1.3 µM)	2 µg/mL (≈ 5.22 µM)	2 µg/mL (≈ 5.22 µM)						
O=C1O/C(=C\c2cccc3ccccc23)C(O)=C1c1ccc(C(F)(F)F)cc1 [Example 71]	26.2 µM	26.2 µM	62.8 µM	0.5 µg/mL (≈ 1.31 µM)	4 µg/mL (≈ 10.5 µM)	8 µg/mL (≈ 20.9 µM)						
COc1cccc(C2=C(O)/C(=C/c3cccc4ccccc34)OC2=O)c1 [Example 72]	61 µM	58.1 µM	> 72.6 µM	32 µg/mL (≈ 92.9 µM)	> 128 µg/mL	> 128 µg/mL						
COC(=O)c1ccc(C2=C(O)/C(=C/c3cccc4ccccc34)OC2=O)cc1 [Example 74]	59.1 µM	26.9 µM	> 67.1 µM	32 µg/mL (≈ 85.9 µM)	> 128 µg/mL	> 128 µg/mL						
CCOC(=O)c1cccc(C2=C(O)C(=Cc3cccc4ccccc34)OC2=O)c1 [Example 75]							> 25 µg/mL	24 µg/mL	>25 (E); >25 (S) μg/mL	32 µg/mL (≈ 82.8 µM)	>128 µg/mL	64 µg/mL (≈ 166 µM)
O=Cc1cccc(C2=C(O)/C(=C/c3cccc4ccccc34)OC2=O)c1 [Example 76]	20.4 µM	14.6 µM	> 73 µM	64 µg/mL (≈ 187 µM)	> 128 µg/mL	> 128 µg/mL						
O=C1O/C(=C\c2cccc3ccccc23)C(O)=C1c1cccc(C=NO)c1 [Example 77]							21 µg/mL	10 µg/mL	>25 (S) μg/mL	64 µg/mL (≈ 179 µM)	>128 µg/mL	>128 µg/mL
CN(C)c1ccc(/C=C2\OC(=O)C(c3ccc(Cl)cc3)=C2O)c2ccccc12 [Example 78]	7.66 µM	33.2 µM	> 63.8 µM	2 µg/mL (≈ 5.1 µM)	64 µg/mL (≈ 163 µM)	64 µg/mL (≈ 163 µM)						
CN(C)c1ccc(/C=C2\OC(=O)C(c3cc(Cl)cc(Cl)c3)=C2O)c2ccccc12 [Example 79]	14.1 µM	2.35 µM	32.8 µM	0.5 µg/mL (≈ 1.17 µM)	4 µg/mL (≈ 9.38 µM)	8 µg/mL (≈ 18.8 µM)						
CN(C)c1ccc(C=C2OC(=O)C(c3cc(Cl)cc(Cl)c3)=C2O)c2ccccc12 [Example 80]							3 µg/mL	1 µg/mL	13 (S) μg/mL	1 µg/mL (≈ 2.35 µM)	4 µg/mL (≈ 9.38 µM)	8 µg/mL (≈ 18.8 µM)
CN(C)c1ccc(/C=C2\OC(=O)C(c3ccc(C(F)(F)F)cc3)=C2O)c2ccccc12 [Example 81]	54.1 µM	35.3 µM	> 58.8 µM	1 µg/mL (≈ 2.35 µM)	16 µg/mL (≈ 37.6 µM)	32 µg/mL (≈ 75.2 µM)						
O=C1O/C(=C\c2cccc(-c3cccc(Cl)c3)c2)C(O)=C1c1cccc(Cl)c1 [Example 134]		4.89 µM	19.5 µM	1 µg/mL (≈ 2.44 µM)	4 µg/mL (≈ 9.77 µM)	8 µg/mL (≈ 19.5 µM)	4 µg/mL					
O=C1O/C(=C\c2cccc(-c3cc(Cl)cc(Cl)c3)c2)C(O)=C1c1cc(Cl)cc(Cl)c1 [Example 136]		4.18 µM	20.9 µM	0.25 µg/mL (≈ 0.523 µM)	0.5 µg/mL (≈ 1.05 µM)	1 µg/mL (≈ 2.09 µM)	3 µg/mL					
O=C1O/C(=C\c2ccccc2-c2ccc(Cl)cc2)C(O)=C1c1ccc(Cl)cc1 [Example 137]	51.3 µM	7.33 µM	44 µM	2 µg/mL (≈ 4.89 µM)	4 µg/mL (≈ 9.77 µM)	4 µg/mL (≈ 9.77 µM)						
